Results: patent publication US12138250B2, “Formulations of 6-(2-hydroxy-2-methylpropoxy)-4-(6-(6-((6-methoxypyridin-3-yl)methyl)-3,6-diazabicyclo[3.1.1]heptan-3-yl)pyridin-3-yl)pyrazolo[1,5-a]pyridine-3-carbonitrile” (Loxo Oncology, Inc., priority 2017, dated 2024)
Read-outs that look alike come from different tables or passages of the source.

How the values were obtained:
Type in all cases: physicochemical
[1] = Dynamic Vapor Sorption (DVS)
Experimental: Approximately 10 mg of sample was placed into a mesh vapor sorption balance pan and loaded into a DVS-1 dynamic vapor sorption balance by Surface Measurement Systems. The sample was subjected to a ramping profile from 40-90% relative humidity (RH) at 10% increments, maintaining the sample at each step until a stable weight had been achieved (99.5% step completion). After completion of the sorption cycle, the sample was dried using the same procedure to 0% RH and then a second sorption cycle back to 40% RH. The weight change during the sorption/desorption cycles were plotted, allowing for the hygroscopic nature of the sample to be determined. XRPD analysis was then carried out on any solid retained.

[2] = Solvent solubility screen in 32 solvent systems; settings: for solubility: 40 °C, thermodynamic from solid, read-out: Approximate solubility
Experimental: A solvent solubility screen was conducted in 32 solvent systems as follows. […] Between each addition, the mixture was checked for dissolution. If no dissolution was apparent, the mixture was heated to around 40° C. and checked again. This procedure was continued until dissolution was observed or until 100 volumes of solvent had been added. Undissolved material from the solubility screen was isolated and analyzed by XRPD.

[3] = Overnight storage at 40° C. and 75% RH with XRPD reanalysis (salt screen, temperature cycling polymorph screen); settings: for Post-temperature cycling (XRPD form): analyzed wet; for Post-stability tests (XRPD form): stored at 40° C. and 75% RH overnight
Experimental: Each mixture was filtered and isolated solids were analyzed (wet) by XRPD to determine crystallinity and form. Samples in which solid was not observed were stored uncapped to allow solvent evaporation. […] The samples were then reanalyzed by XRPD to determine any changes in form or crystallinity. The observations and results, including the different diffractogram patterns observed during the screen, are shown in Tables 8-32, below, and FIGS. 6A-6B through 29A-29B. After temperature cycling, each mixture was filtered and isolated solids were analyzed (wet) by XRPD to determine crystallinity and form. The samples were then stored at 40° C. and 75% RH overnight and reanalyzed by XRPD to determine any changes in form or crystallinity. Results are shown in Table 39, below, and FIGS. 40A-40D.

## COc1ccc(CN2C3CC2CN(c2ccc(-c4cc(OCC(C)(C)O)cn5ncc(C#N)c45)cn2)C3)cn1 [compound of Formula (I), 6-(2-hydroxy-2-methylpropoxy)-4-(6-(6-((6-methoxypyridin-3-yl)methyl)-3,6-diazabicyclo[3.1.1]heptan-3-yl)pyridin-3-yl)pyrazolo[1,5-a]pyridine-3-carbonitrile]
[1]; XRPD after DVS
  change in form post-DVS: No change in Form
[1]; at 90% RH, material prepared as in Example 1, identified as Form 1
  weight increase by DVS: around 3.6%
[1]; material prepared as in Example 1, identified as Form 1
  hygroscopicity by DVS: moderately hygroscopic
[2]; aqueous with cosolvent or surfactant or cyclodextrin, solvent Acetone:Water (50%)
  solubility: < 5000 µg/mL
[2]; organic solvent or mixture, solvent 1,4-Dioxane, (P) = partial solubility at 100 volumes
  solubility: < 5000 µg/mL
[2]; organic solvent or mixture, solvent 1-Butanol
  solubility: < 5000 µg/mL
[2]; organic solvent or mixture, solvent 1-Propanol
  solubility: < 5000 µg/mL
[2]; organic solvent or mixture, solvent 2-Ethoxyethanol, (P) = partial solubility at 100 volumes
  solubility: < 5000 µg/mL
[2]; organic solvent or mixture, solvent 2-Methyl THF, (P) = partial solubility at 100 volumes
  solubility: < 5000 µg/mL
[2]; organic solvent or mixture, solvent Acetone
  solubility: < 5000 µg/mL
[2]; organic solvent or mixture, solvent Anisole, (P) = partial solubility at 100 volumes
  solubility: < 5000 µg/mL
[2]; organic solvent or mixture, solvent CHCl3, (P) = partial solubility at 100 volumes
  solubility: < 5000 µg/mL
[2]; organic solvent or mixture, solvent Cyclohexane
  solubility: < 5000 µg/mL
[2]; organic solvent or mixture, solvent Cyclohexanone, (P) = partial solubility at 100 volumes
  solubility: < 5000 µg/mL
[2]; organic solvent or mixture, solvent DCM, (P) = partial solubility at 100 volumes
  solubility: < 5000 µg/mL
[2]; organic solvent or mixture, solvent EtOAc
  solubility: < 5000 µg/mL
[2]; organic solvent or mixture, solvent Ethanol
  solubility: < 5000 µg/mL
[2]; organic solvent or mixture, solvent IPA
  solubility: < 5000 µg/mL
[2]; organic solvent or mixture, solvent MEK
  solubility: < 5000 µg/mL
[2]; organic solvent or mixture, solvent MIBK
  solubility: < 5000 µg/mL
[2]; organic solvent or mixture, solvent MeOAc
  solubility: < 5000 µg/mL
[2]; organic solvent or mixture, solvent Nitromethane, (P) = partial solubility at 100 volumes
  solubility: < 5000 µg/mL
[2]; organic solvent or mixture, solvent THF, (P) = partial solubility at 100 volumes
  solubility: < 5000 µg/mL
[2]; solvent Water
  solubility: < 5000 µg/mL
[2]; DMSO, NMP, and THF/water (1%)
  solubility in solvent solubility screen: moderate solubility
[2]; majority of solvent systems investigated
  solubility in solvent solubility screen: low solubility
[3]; slurry in 1,4-Dioxane, 40° C./RT cycles 72 hours
  Post-temperature cycling (XRPD form): Weak diffraction
[3]; slurry in 1-Butanol, 40° C./RT cycles 72 hours
  Post-temperature cycling (XRPD form): Weak diffraction
[3]; slurry in 1-Propanol, 40° C./RT cycles 72 hours
  Post-temperature cycling (XRPD form): Form 8
[3]; slurry in 2-Ethoxyethanol, 40° C./RT cycles 72 hours
  Post-temperature cycling (XRPD form): Weak diffraction
[3]; slurry in 2-Methyl THF, 40° C./RT cycles 72 hours
  Post-temperature cycling (XRPD form): Weak diffraction
[3]; slurry in Acetone, 40° C./RT cycles 72 hours
  Post-temperature cycling (XRPD form): Weak diffraction
[3]; slurry in Acetone:Water (50%), 40° C./RT cycles 72 hours
  Post-temperature cycling (XRPD form): Form 1
[3]; slurry in Anisole, 40° C./RT cycles 72 hours
  Post-temperature cycling (XRPD form): Form 1
[3]; slurry in CHCl3, 40° C./RT cycles 72 hours
  Post-temperature cycling (XRPD form): Amorphous
[3]; slurry in Cyclohexane, 40° C./RT cycles 72 hours
  Post-temperature cycling (XRPD form): Form 1
[3]; slurry in Cyclohexanone, 40° C./RT cycles 72 hours
  Post-temperature cycling (XRPD form): Weak diffraction
[3]; slurry in DCM, 40° C./RT cycles 72 hours
  Post-temperature cycling (XRPD form): Amorphous
[3]; slurry in DMSO, 40° C./RT cycles 72 hours
  Post-temperature cycling (XRPD form): Form 1
[3]; slurry in EtOAc, 40° C./RT cycles 72 hours
  Post-temperature cycling (XRPD form): Form 1
[3]; slurry in Ethanol, 40° C./RT cycles 72 hours
  Post-temperature cycling (XRPD form): Weak diffraction
[3]; slurry in IPA, 40° C./RT cycles 72 hours
  Post-temperature cycling (XRPD form): Form 8
[3]; slurry in MEK, 40° C./RT cycles 72 hours
  Post-temperature cycling (XRPD form): Weak diffraction
[3]; slurry in MIBK, 40° C./RT cycles 72 hours
  Post-temperature cycling (XRPD form): Form 1
[3]; slurry in MeCN:Water (20%), 40° C./RT cycles 72 hours
  Post-temperature cycling (XRPD form): Weak diffraction
[3]; slurry in MeOAc, 40° C./RT cycles 72 hours
  Post-temperature cycling (XRPD form): Weak diffraction
[3]; slurry in Nitromethane, 40° C./RT cycles 72 hours
  Post-temperature cycling (XRPD form): Weak diffraction
[3]; slurry in THF, 40° C./RT cycles 72 hours
  Post-temperature cycling (XRPD form): Weak diffraction
[3]; slurry in THF:Water (1%), 40° C./RT cycles 72 hours
  Post-temperature cycling (XRPD form): Weak diffraction
[3]; slurry in Water, 40° C./RT cycles 72 hours
  Post-temperature cycling (XRPD form): Form 1
[3]; solid from 1,4-Dioxane
  Post-stability tests (XRPD form): Form 1
[3]; solid from 1-Butanol
  Post-stability tests (XRPD form): Form 1
[3]; solid from 1-Propanol
  Post-stability tests (XRPD form): Form 1
[3]; solid from 2-Ethoxyethanol
  Post-stability tests (XRPD form): Form 1
[3]; solid from 2-Methyl THF
  Post-stability tests (XRPD form): Form 1
[3]; solid from Acetone:Water (50%)
  Post-stability tests (XRPD form): Form 1
[3]; solid from Acetone
  Post-stability tests (XRPD form): Form 1
[3]; solid from Anisole
  Post-stability tests (XRPD form): Form 1
[3]; solid from CHCl3
  Post-stability tests (XRPD form): Form 1
[3]; solid from Cyclohexane
  Post-stability tests (XRPD form): Form 1
[3]; solid from Cyclohexanone
  Post-stability tests (XRPD form): Form 1
[3]; solid from DCM
  Post-stability tests (XRPD form): Form 1
[3]; solid from DMSO
  Post-stability tests (XRPD form): Form 1
[3]; solid from EtOAc
  Post-stability tests (XRPD form): Form 1
[3]; solid from Ethanol
  Post-stability tests (XRPD form): Form 1
[3]; solid from IPA
  Post-stability tests (XRPD form): Form 1
[3]; solid from MEK
  Post-stability tests (XRPD form): Form 1
[3]; solid from MIBK
  Post-stability tests (XRPD form): Form 1
[3]; solid from MeCN:Water (20%)
  Post-stability tests (XRPD form): Form 1
[3]; solid from MeOAc
  Post-stability tests (XRPD form): Form 1
[3]; solid from Nitromethane
  Post-stability tests (XRPD form): Form 1
[3]; solid from THF
  Post-stability tests (XRPD form): Form 1
[3]; solid from Water
  Post-stability tests (XRPD form): Form 1
